{
  "source": "PubChem BioAssay AID214",
  "about": "(DTP/NCI, 2004)",
  "test_system": "B6C3F1 mice, colon carcinoma 38 s.c., T/C",
  "experiment": "NCI In Vivo Anticancer Drug Screen. Data for tumor model Colon Carcinoma 38 (subcutaneous) in B6C3F1 mice",
  "conditions": "endpoint: median tumor weight (est.), higher = larger tumour",
  "experimental": "The antitumor activity of compounds was measured in mice bearing transplantable tumors. Survival or tumor size were measured and the results are expressed as the measurement made in the treated group (T) divided by the measurement made in the vehicle treated control group (C). The tumor model used in this assay is Colon Carcinoma 38 (subcutaneous) in B6C3F1 mice",
  "key": {"[1]": {"conditions": "dose: 3.12 mg/kg/injection, schedule: Q07DX002 (ip), vehicle: saline"}, "[2]": {"conditions": "dose: 6.25 mg/kg/injection, schedule: Q07DX002 (ip), vehicle: saline"}, "[3]": {"conditions": "dose: 12.5 mg/kg/injection, schedule: Q07DX002 (ip), vehicle: saline"}, "[4]": {"conditions": "dose: 25.0 mg/kg/injection, schedule: Q07DX002 (ip), vehicle: saline"}, "[5]": {"conditions": "dose: 100.0 mg/kg/injection, schedule: Q07DX002 (ip), vehicle: water"}, "[6]": {"conditions": "dose: 200.0 mg/kg/injection, schedule: Q07DX002 (ip), vehicle: water"}, "[7]": {"conditions": "dose: 100.0 mg/kg/injection, schedule: Q07DX002 (ip), vehicle: saline"}, "[8]": {"conditions": "dose: 300.0 mg/kg/injection, schedule: Q07DX002 (ip), vehicle: saline"}, "[9]": {"conditions": "dose: 50.0 mg/kg/injection, schedule: Q07DX002 (ip), vehicle: Klucel (hydroxypropylcellulose) (HPC)"}, "[10]": {"conditions": "dose: 100.0 mg/kg/injection, schedule: Q07DX002 (ip), vehicle: Klucel (hydroxypropylcellulose) (HPC)"}, "[11]": {"conditions": "dose: 200.0 mg/kg/injection, schedule: Q07DX002 (ip), vehicle: Klucel (hydroxypropylcellulose) (HPC)"}, "[12]": {"conditions": "dose: 50.0 mg/kg/injection, schedule: Q07DX002 (ip), vehicle: saline"}, "[13]": {"conditions": "dose: 400.0 mg/kg/injection, schedule: Q07DX002 (ip), vehicle: saline"}},
  "note": "Records with an inconclusive call do not appear.",
  "data": [
    {"smiles": "COc1ccc(C(=O)C(CN(C)C)CN(C)C)cc1", "values": [
      {"measurement": "T/C", "setting": "[1]", "value": "109 % of control"},
      {"measurement": "T/C", "setting": "[2]", "value": "113 % of control"},
      {"measurement": "T/C", "setting": "[3]", "value": "115 % of control"},
      {"measurement": "T/C", "setting": "[4]", "value": "102 % of control"}
    ]},
    {"smiles": "Oc1cccc2ccccc12", "values": [
      {"measurement": "T/C", "setting": "dose: 50.0 mg/kg/injection, schedule: Q07DX002 (ip), vehicle: water", "value": "91 % of control"},
      {"measurement": "T/C", "setting": "[5]", "value": "87 % of control"},
      {"measurement": "T/C", "setting": "[6]", "value": "76 % of control"}
    ]},
    {"smiles": "COc1ccc2c(ccc3oc([N+](=O)[O-])cc32)c1", "values": [
      {"measurement": "T/C", "setting": "dose: 50.0 mg/kg/injection, schedule: Q07DX002 (ip), vehicle: saline with Tween-80", "value": "101 % of control"},
      {"measurement": "T/C", "setting": "dose: 100.0 mg/kg/injection, schedule: Q07DX002 (ip), vehicle: saline with Tween-80", "value": "116 % of control"},
      {"measurement": "T/C", "setting": "dose: 200.0 mg/kg/injection, schedule: Q07DX002 (ip), vehicle: saline with Tween-80", "value": "90 % of control"},
      {"measurement": "T/C", "setting": "dose: 400.0 mg/kg/injection, schedule: Q07DX002 (ip), vehicle: saline with Tween-80", "value": "92 % of control"}
    ]},
    {"smiles": "COc1cccc(-c2cc(=O)c3cccc(CC(=O)O)c3o2)c1", "values": [
      {"measurement": "T/C", "setting": "[7]", "value": "3 % of control"}
    ]},
    {"smiles": "C=C1COC(O)(C2OCOC(C3CC(=O)NC(=O)C3)C2O)C1C", "note": "(stereo unspecified)", "values": [
      {"measurement": "T/C", "setting": "dose: 31.25 micrograms/kg/injection, schedule: Q07DX002 (ip), vehicle: water", "value": "119 % of control"}
    ]},
    {"smiles": "BrCCC1(CCBr)CCCCC1", "values": [
      {"measurement": "T/C", "setting": "[5]", "value": "112 % of control"},
      {"measurement": "T/C", "setting": "[6]", "value": "177 % of control"},
      {"measurement": "T/C", "setting": "dose: 400.0 mg/kg/injection, schedule: Q07DX002 (ip), vehicle: water", "value": "95 % of control"},
      {"measurement": "T/C", "setting": "dose: 800.0 mg/kg/injection, schedule: Q07DX002 (ip), vehicle: water", "value": "117 % of control"},
      {"measurement": "T/C", "setting": "dose: 1600.0 mg/kg/injection, schedule: Q07DX002 (ip), vehicle: water", "value": "90 % of control"}
    ]},
    {"smiles": "CS(=O)(=O)OCCCCOS(C)(=O)=O", "values": [
      {"measurement": "T/C", "setting": "dose: 50.0 mg/kg/injection, schedule: Q01DX006 (ip), vehicle: saline with Tween-80", "value": "16 % of control"}
    ]},
    {"smiles": "Nc1ccn(C2OC(CO)C(O)C2O)c(=O)n1", "note": "(stereo unspecified)", "values": [
      {"measurement": "T/C", "setting": "[8]", "value": "70 % of control"},
      {"measurement": "T/C", "setting": "dose: 600.0 mg/kg/injection, schedule: Q07DX002 (ip), vehicle: saline", "value": "90 % of control"},
      {"measurement": "T/C", "setting": "dose: 1200.0 mg/kg/injection, schedule: Q07DX002 (ip), vehicle: saline", "value": "56 % of control"},
      {"measurement": "T/C", "setting": "dose: 2400.0 mg/kg/injection, schedule: Q07DX002 (ip), vehicle: saline", "value": "64 % of control"}
    ]},
    {"smiles": "Cc1cc(N/N=C/c2ccccn2)nc2ccccc12", "values": [
      {"measurement": "T/C", "setting": "[9]", "value": "65 % of control"},
      {"measurement": "T/C", "setting": "[10]", "value": "90 % of control"},
      {"measurement": "T/C", "setting": "[11]", "value": "74 % of control"}
    ]},
    {"smiles": "O=c1n(CC2CO2)c(=O)n(CC2CO2)n1CC1CO1", "note": "(stereo unspecified)", "values": [
      {"measurement": "T/C", "setting": "[2]", "value": "72 % of control"},
      {"measurement": "T/C", "setting": "[3]", "value": "67 % of control"},
      {"measurement": "T/C", "setting": "[4]", "value": "87 % of control"},
      {"measurement": "T/C", "setting": "[12]", "value": "31 % of control"}
    ]},
    {"smiles": "Cc1cc(NCCCCCCCCNc2cc(C)nc3cc(N(C)C)ccc23)c2ccc(N(C)C)cc2n1", "values": [
      {"measurement": "T/C", "setting": "dose: 3.12 mg/kg/injection, schedule: Q07DX002 (ip), vehicle: distilled water + Tween-80 + alcohol", "value": "105 % of control"},
      {"measurement": "T/C", "setting": "dose: 6.25 mg/kg/injection, schedule: Q07DX002 (ip), vehicle: distilled water + Tween-80 + alcohol", "value": "78 % of control"},
      {"measurement": "T/C", "setting": "dose: 12.5 mg/kg/injection, schedule: Q07DX002 (ip), vehicle: distilled water + Tween-80 + alcohol", "value": "69 % of control"},
      {"measurement": "T/C", "setting": "dose: 25.0 mg/kg/injection, schedule: Q07DX002 (ip), vehicle: distilled water + Tween-80 + alcohol", "value": "160 % of control"}
    ]},
    {"smiles": "Cc1c2cc[n+](CCN3CCCCC3)cc2c(C)c2c1[nH]c1ccc(O)cc12", "values": [
      {"measurement": "T/C", "setting": "dose: 6.25 mg/kg/injection, schedule: Q07DX002 (ip), vehicle: suspension in saline", "value": "83 % of control"},
      {"measurement": "T/C", "setting": "dose: 12.5 mg/kg/injection, schedule: Q07DX002 (ip), vehicle: suspension in saline", "value": "71 % of control"},
      {"measurement": "T/C", "setting": "dose: 25.0 mg/kg/injection, schedule: Q07DX002 (ip), vehicle: suspension in saline", "value": "62 % of control"},
      {"measurement": "T/C", "setting": "dose: 50.0 mg/kg/injection, schedule: Q07DX002 (ip), vehicle: suspension in saline", "value": "53 % of control"},
      {"measurement": "T/C", "setting": "dose: 100.0 mg/kg/injection, schedule: Q07DX002 (ip), vehicle: suspension in saline", "value": "34 % of control"}
    ]},
    {"smiles": "[Cl][Hg][Cl]", "values": [
      {"measurement": "T/C", "setting": "dose: 1.56 mg/kg/injection, schedule: Q07DX002 (ip), vehicle: saline", "value": "80 % of control"},
      {"measurement": "T/C", "setting": "[1]", "value": "124 % of control"}
    ]},
    {"smiles": "O=C(O)C1CC(O)CN1", "note": "(stereo unspecified)", "values": [
      {"measurement": "T/C", "setting": "[12]", "value": "93 % of control"},
      {"measurement": "T/C", "setting": "[7]", "value": "87 % of control"},
      {"measurement": "T/C", "setting": "[13]", "value": "79 % of control"}
    ]},
    {"smiles": "C=C(C(=O)O)C(N)C(=O)O", "note": "(stereo unspecified)", "values": [
      {"measurement": "T/C", "setting": "dose: 150.0 mg/kg/injection, schedule: Q07DX002 (ip), vehicle: saline", "value": "56 % of control"},
      {"measurement": "T/C", "setting": "[8]", "value": "94 % of control"}
    ]},
    {"smiles": "O=C(O)CSc1c(Cl)c(=O)oc2ccc(Cl)cc12", "values": [
      {"measurement": "T/C", "setting": "dose: 12.5 mg/kg/injection, schedule: Q07DX002 (ip), vehicle: Klucel (hydroxypropylcellulose) (HPC)", "value": "73 % of control"},
      {"measurement": "T/C", "setting": "dose: 25.0 mg/kg/injection, schedule: Q07DX002 (ip), vehicle: Klucel (hydroxypropylcellulose) (HPC)", "value": "58 % of control"},
      {"measurement": "T/C", "setting": "[9]", "value": "57 % of control"},
      {"measurement": "T/C", "setting": "[10]", "value": "86 % of control"},
      {"measurement": "T/C", "setting": "[11]", "value": "67 % of control"}
    ]},
    {"smiles": "O=C(O)Cc1cccc2c(=O)cc(C3CCCCC3)oc12", "values": [
      {"measurement": "T/C", "setting": "[7]", "value": "90 % of control"},
      {"measurement": "T/C", "setting": "[13]", "value": "82 % of control"}
    ]},
    {"smiles": "C[C@@H]1CC[C@]2(C)CC[C@]3(C)C(=CC[C@@H]4[C@@]5(C)CC[C@@H](OC(=O)c6ccc(O)cc6)C(C)(C)[C@@H]5C[C@H](O)[C@]43C)[C@@H]2[C@H]1C(=O)O", "values": [
      {"measurement": "T/C", "setting": "dose: 0.12 mg/kg/injection, schedule: Q07DX002 (ip), vehicle: saline with Tween-80", "value": "164 % of control"},
      {"measurement": "T/C", "setting": "dose: 0.5 mg/kg/injection, schedule: Q07DX002 (ip), vehicle: saline with Tween-80", "value": "49 % of control"},
      {"measurement": "T/C", "setting": "dose: 1.0 mg/kg/injection, schedule: Q07DX002 (ip), vehicle: saline with Tween-80", "value": "50 % of control"},
      {"measurement": "T/C", "setting": "dose: 2.0 mg/kg/injection, schedule: Q07DX002 (ip), vehicle: saline with Tween-80", "value": "50 % of control"}
    ]},
    {"smiles": "Cc1ccc2nc(-c3ccc4nc(-c5ccc(N=Nc6ccc(-c7nc8ccc(-c9nc%10ccc(C)c(S(=O)(=O)O)c%10s9)cc8s7)cc6)cc5)sc4c3)sc2c1S(=O)(=O)O", "values": [
      {"measurement": "T/C", "setting": "[12]", "value": "72 % of control"},
      {"measurement": "T/C", "setting": "[7]", "value": "101 % of control"},
      {"measurement": "T/C", "setting": "dose: 200.0 mg/kg/injection, schedule: Q07DX002 (ip), vehicle: saline", "value": "84 % of control"},
      {"measurement": "T/C", "setting": "[13]", "value": "82 % of control"}
    ]}
  ]
}
